Measurements reported in patent US7947695B2, “5-membered annelated heterocyclic pyrimidines as kinase inhibitors” (Janssen Pharmaceutica NV, priority 2005, dated 2011).

Assays:
Type in all cases: biochemical
AURORA B = AURORA B (Homo sapiens, UniProt Q96GD4); assay: In vitro filtration assay for AURORA B inhibitory activity; conditions: peptide (C(LRRWSLG)×4), 1 μM unlabeled ATP, 25° C. 40 minutes, read-out: Aurora B see C.3 (pIC50) (converted)
Method: (§1) Compounds of the present invention were tested in an in vitro filtration assay assessing AURORA B activity by means of its substrate-phosphorylation activity using [^33P]-ATP as phosphor donor. The radioactive phosphorylated substrate is then captured on filtermats and the incorporated [^33P] quantitated using a phosphorage storage screen.
The Aurora-B kinase reaction is performed at 25° C. for 40 minutes in a 96-well microtiterplate. The 25 μl reaction volume contains 60 mM Hepes pH 7.5, 3 mM MgCl2, 3 mM MnCl2, 3 μM Na3VO4, 50 μg/ml PEG20000, 1 μM unlabeled ATP, 1 mM DTT, 0.2 μCi AT^33P, 0.25 μg/well peptide (C(LRRWSLG)×4),100 ng Aurora-B/well and 0.2% compound in 100% DMSO. The reaction is stopped by adding 5 μl of a 3% phosphoric acid solution. 10 μl of the reaction mixture is then spotted onto a Filtermat P30 filter (Wallac) and washed 3 times for 5 min. in 75 mM phosphoric acid and 1 time for 5 min. in methanol prior to drying and quantification on the Typhoon (Amersham) using a phosphorage storage screen.
(§2) For each experiment, controls (containing enzyme (complex) and DMSO without compound), a blank incubation (containing DMSO but no enzyme (complex) or compound) and samples (containing enzyme (complex) and compound dissolved in DMSO) were run in parallel. All compounds tested were dissolved and eventually further diluted in DMSO. […] In each test, the blank value was subtracted from both the control and the sample values. The control sample represented maximal enzyme activity. For each sample, the amount of cpm was expressed as a percentage of the mean cpm value of the controls. When appropriate, IC50-values (concentration of the drug, needed to reduce the enzyme activity to 50% of the control) were computed using linear interpolation between the experimental points just above and below the 50% level. Herein the effects of test compounds are expressed as pIC50 (the negative log value of the IC50-value).

AURORA A = biological target: T1, AURORA A (Homo sapiens, UniProt O14965); assay: In vitro filtration assay for AURORA A inhibitory activity; conditions: Kemptide substrate, 1 μM unlabeled ATP, 25° C. 40 minutes, read-out: Aurora A see C.2 (pIC50) (converted)
T1 sequence (O14965 1-403): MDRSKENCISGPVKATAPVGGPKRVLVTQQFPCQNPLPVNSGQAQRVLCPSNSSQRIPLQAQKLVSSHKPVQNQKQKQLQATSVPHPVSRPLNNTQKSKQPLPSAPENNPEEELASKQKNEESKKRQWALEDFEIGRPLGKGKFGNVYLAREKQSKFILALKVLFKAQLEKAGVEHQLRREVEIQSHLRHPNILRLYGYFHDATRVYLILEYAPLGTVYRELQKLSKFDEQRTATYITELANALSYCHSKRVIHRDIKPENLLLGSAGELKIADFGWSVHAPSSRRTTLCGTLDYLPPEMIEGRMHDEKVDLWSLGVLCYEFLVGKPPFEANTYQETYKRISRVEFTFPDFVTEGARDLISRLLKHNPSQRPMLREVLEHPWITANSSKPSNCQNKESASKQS
Method: as §1, with “A” for “B”
The Aurora-A kinase reaction is performed at 25° C. for 40 minutes in a 96-well microtiterplate. The 25 μl reaction volume contains 12 mM MOPS pH 7, 0.4 mM EDTA, 0.002% Brij35, 1% glycerol, 0.02% beta-mercapto-ethanol, 0.2 mg/ml BSA, 1 μM unlabeled ATP, […] [^33P]-ATP, 200 μM Kemptide, 3 ng Aurora A/well and 0.2% compound in 100% DMSO.
(§3) The reaction is stopped by adding 5 μl of a 3% phosphoric acid solution. 10 μl of the reaction mixture is then spotted onto a Filtermat P30 filter (Wallac) and washed 3 times for 5 min. in 75 mM phosphoric acid and 1 time for 5 min. in methanol prior to drying and quantification on the Typhoon (Amersham) using a phosphorage storage screen.
as §2

CDK4/cyclinD1 = CDK4/cyclinD1 (Homo sapiens, UniProt P11802); assay: In vitro filtration assay for CDK4 inhibitory activity (pRb phosphorylation, [33P]-ATP); conditions: GST-pRb substrate, 1 μM unlabeled ATP, 25° C. 45 minutes, read-out: cdk4 filter (pIC50) (converted)
CDK4/cyclinD1, sequence (P11802 whole entry): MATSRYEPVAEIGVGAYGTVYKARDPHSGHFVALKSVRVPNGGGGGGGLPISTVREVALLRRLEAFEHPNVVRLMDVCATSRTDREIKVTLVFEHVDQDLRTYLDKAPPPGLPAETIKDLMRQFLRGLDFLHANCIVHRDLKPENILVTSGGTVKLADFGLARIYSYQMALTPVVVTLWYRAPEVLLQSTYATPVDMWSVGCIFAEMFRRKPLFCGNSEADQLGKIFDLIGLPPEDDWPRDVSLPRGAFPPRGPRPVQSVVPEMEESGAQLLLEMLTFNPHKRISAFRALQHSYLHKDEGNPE
CDK4/cyclinD1, sequence (P24385 whole entry partner): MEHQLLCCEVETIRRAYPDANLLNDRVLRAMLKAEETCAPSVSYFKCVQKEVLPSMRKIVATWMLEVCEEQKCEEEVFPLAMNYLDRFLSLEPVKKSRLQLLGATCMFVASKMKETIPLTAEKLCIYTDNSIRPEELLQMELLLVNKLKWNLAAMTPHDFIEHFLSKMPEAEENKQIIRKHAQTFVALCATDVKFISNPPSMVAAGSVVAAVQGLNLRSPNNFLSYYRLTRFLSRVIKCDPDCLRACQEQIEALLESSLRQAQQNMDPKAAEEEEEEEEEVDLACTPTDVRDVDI
Method: as §1, with “CDK4” for “AURORA B”, “pRb-phosphorylation” for “substrate-phosphorylation”, “pRb” for “substrate”
The CDK4 kinase reaction is performed at 25° C. for 45 minutes in a 96-well microtiterplate. The 25 μl reaction volume contains 50 mM Hepes pH 7.5, 10 mM NaF, 10 mM MgCl2, 1 mM Na3VO4, 1 μM unlabeled ATP, 1 mM DTT, 0.5 μCi AT^33P, 0.76 μg/well GST-pRb, 50 ng CDK4/cyclinD1/well and 0.2% compound in 100% DMSO.
as §3, §2

AURORA B, sequence (Q96GD4 whole entry): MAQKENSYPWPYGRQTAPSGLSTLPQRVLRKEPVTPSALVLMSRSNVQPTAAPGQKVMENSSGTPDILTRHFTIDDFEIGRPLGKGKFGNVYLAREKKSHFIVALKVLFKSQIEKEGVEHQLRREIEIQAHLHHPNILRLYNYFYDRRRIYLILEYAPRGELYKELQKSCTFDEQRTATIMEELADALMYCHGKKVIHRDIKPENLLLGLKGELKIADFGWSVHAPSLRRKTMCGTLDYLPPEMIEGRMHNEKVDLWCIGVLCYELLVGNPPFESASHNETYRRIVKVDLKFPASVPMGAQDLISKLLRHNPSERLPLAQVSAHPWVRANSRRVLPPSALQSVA

Structure (SMILES)	IC50 (AURORA B)	IC50 (AURORA A)	IC50 (CDK4/cyclinD1)
COCCCN(C(=O)OC(C)(C)C)C1CCN(Cc2ccc(N(C(=O)OC(C)(C)C)c3ncc4cnn(C5CCCCC5)c4n3)cc2)CC1 [compound 46]	> 10 µM	> 10 µM	> 10 µM
COCCCNC1CCN(Cc2ccc(Nc3ncc4cnn(C5CCCCC5)c4n3)cc2)CC1 [compound 47]	3.98 µM	0.316 µM	0.0316 µM
CN1CCN(Cc2ccc(N(C(=O)OC(C)(C)C)c3ncc4cnn(C5CCOCC5)c4n3)cc2)CC1 [compound 48]	> 10 µM	> 10 µM	> 10 µM
CC(C)(C)OC(=O)N(c1ccc(CN2CCOCC2)cc1)c1ncc2cnn(C3CCOCC3)c2n1 [compound 50]	> 10 µM	> 10 µM	> 10 µM
c1cc(Nc2ncc3cnn(C4CCOCC4)c3n2)ccc1CN1CCOCC1 [compound 51]	> 10 µM	1 µM	5.01 µM
c1cc(Nc2ncc3cnn([C@H]4C[C@@H]5CC[C@H]4C5)c3n2)ccc1CN1CCOCC1 [compound 52]	0.316 µM	0.158 µM	0.0794 µM
CC(C)(O)CN1CCN(Cc2ccc(Nc3ncc4cnn(C5CCOCC5)c4n3)cc2)CC1 [compound 53]	7.94 µM	> 10 µM	0.501 µM
OCCN1CCN(Cc2ccc(Nc3ncc4cnn(C5CCOCC5)c4n3)cc2)CC1 [compound 54]	> 10 µM	> 10 µM	0.631 µM
CC(C)(C)OC(=O)N(c1ccc(CN2CCN(CCO)CC2)cc1)c1ncc2cnn(C3CCOCC3)c2n1 [compound 55]	> 10 µM	> 10 µM	> 10 µM
O=C(c1ccc(Nc2ncc3cnn(C4CCCCC4)c3n2)cc1)N1CCOCC1 [compound 56]	3.16 µM	0.126 µM	0.0251 µM
CN1CCN(C(=O)c2ccc(Nc3ncc4cnn([C@H]5C[C@@H]6CC[C@H]5C6)c4n3)cc2)CC1 [compound 57]	7.94 µM	0.1 µM	0.1 µM
CC(C)(O)CN1CCN(C(=O)c2ccc(Nc3ncc4cnn(C5CCCCC5)c4n3)cc2)CC1 [compound 58]	1.26 µM	0.126 µM	0.631 µM
c1cc(Nc2ncc3cnn(C4CCCCC4)c3n2)ccc1CNC1CCNCC1 [compound 59]	> 10 µM	0.794 µM	0.0158 µM
CC(C)(C)OC(=O)N1CCC(N(Cc2ccc(Nc3ncc4cnn(C5CCCCC5)c4n3)cc2)C(=O)OC(C)(C)C)CC1 [compound 61]	> 10 µM	1.26 µM	> 10 µM
CN1CCC(N(Cc2ccc(Nc3ncc4cnn(C5CCCCC5)c4n3)cc2)C(=O)OC(C)(C)C)CC1 [compound 62]	6.31 µM	0.158 µM	0.0251 µM
CC(C)(O)CN1CCC(NCc2ccc(Nc3ncc4cnn(C5CCCCC5)c4n3)cc2)CC1 [compound 63]	2.51 µM	1 µM	0.0251 µM
CC(C)(C)OC(=O)N(c1ccc(CNCCN2CCOCC2)cc1)c1ncc2cnn([C@H]3C[C@@H]4CC[C@H]3C4)c2n1 [compound 64]	> 10 µM	> 10 µM	6.31 µM
c1cc(Nc2ncc3cnn([C@H]4C[C@@H]5CC[C@H]4C5)c3n2)ccc1CNCCN1CCOCC1 [compound 65]	0.501 µM	0.501 µM	0.2 µM

Structure (SMILES)	IC50 (AURORA B)	IC50 (AURORA A)	IC50 (CDK4/cyclinD1)
c1cc(Nc2ncc3cnn(C4CCCCC4)c3n2)ccc1CNC1CCOCC1 [compound 67]	1 µM	1.58 µM	0.251 µM
CN1CCC(NCc2ccc(N(C(=O)OC(C)(C)C)c3ncc4cnn([C@H]5C[C@@H]6CC[C@H]5C6)c4n3)cc2)CC1 [compound 68]	7.94 µM	6.31 µM	1 µM
CN1CCC(NCc2ccc(Nc3ncc4cnn([C@H]5C[C@@H]6CC[C@H]5C6)c4n3)cc2)CC1 [compound 69]	1 µM	0.631 µM	0.0251 µM
CC(C)(C)OC(=O)N(c1ccc(CNCCN2CCOCC2)cc1)c1ncc2cnn(C3CCOCC3)c2n1 [compound 70]	> 10 µM	> 10 µM	> 10 µM
c1cc(Nc2ncc3cnn(C4CCOCC4)c3n2)ccc1CNCCN1CCOCC1 [compound 71]	> 10 µM	5.01 µM	2.51 µM
CN1CCC(NCc2ccc(N(C(=O)OC(C)(C)C)c3ncc4cnn(C5CCOCC5)c4n3)cc2)CC1 [compound 72]	> 10 µM	> 10 µM	> 10 µM
CN1CCC(NCc2ccc(Nc3ncc4cnn(C5CCOCC5)c4n3)cc2)CC1 [compound 73]	> 10 µM	> 10 µM	0.631 µM
OCCN1CCC(NCc2ccc(Nc3ncc4cnn(C5CCCCC5)c4n3)cc2)CC1 [compound 75]	1.26 µM	1.58 µM	0.126 µM
COCCCN1CCC(NCc2ccc(N(C(=O)OC(C)(C)C)c3ncc4cnn(C5CCCCC5)c4n3)cc2)CC1 [compound 76]	> 10 µM	> 10 µM	> 10 µM
COCCCN1CCC(NCc2ccc(Nc3ncc4cnn(C5CCCCC5)c4n3)cc2)CC1 [compound 77]	2 µM	> 10 µM	0.0794 µM
CN1CCN(Cc2ccc(Nc3ncc4[nH]c(=O)n(C5CCCCC5)c4n3)cc2)CC1 [compound 79]	> 10 µM	> 10 µM	2 µM
CC(=O)N1CCN(c2ccc(Nc3ncc4[nH]c(=O)n(C5CCCCC5)c4n3)cc2)CC1 [compound 80]	> 10 µM	2.51 µM	3.98 µM
O=c1[nH]c2cnc(Nc3ccc(N4CCOCC4)nc3)nc2n1C1CCCCC1 [compound 81]	> 10 µM	> 10 µM	5.01 µM
CN(C)CCOC(=O)c1ccc(Nc2ncc3[nH]c(=O)n(C4CCCCC4)c3n2)cc1 [compound 82]	> 10 µM	> 10 µM	2 µM
CN1CCN(C(=O)c2ccc(Nc3ncc4[nH]c(=O)n(C5CCCCC5)c4n3)cc2)CC1 [compound 83]	> 10 µM	> 10 µM	2.51 µM
CN1CCN(c2ccc(Nc3ncc4[nH]c(=O)n(C5CCCCC5)c4n3)cc2Cl)CC1 [compound 84]	> 10 µM	6.31 µM	0.631 µM
O=c1[nH]c2cnc(Nc3ccc(S(=O)(=O)N4CCOCC4)cc3)nc2n1C1CCCCC1 [compound 85]	> 10 µM	3.16 µM	> 10 µM
O=c1[nH]c2cnc(Nc3ccc(CNC4CCNCC4)cc3)nc2n1C1CCCCC1 [compound 86]	> 10 µM	5.01 µM	2.51 µM
